Test results published in the supplement of paper PMC12533247.
± gives the standard deviation of the averaged measurements.

What was measured:
[1] = tested on: HSV-1 K26-GFP infected primary human skin cells; experiment: % change of HSV-1 GFP signal vs untreated infected cells; higher = less antiviral inhibition; settings: cell type: primary dermal fibroblasts, time (h post infection): 48
Procedure: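 2D primary donor-derived dermal fibroblasts infected with GFP-HSV-1 K26 at MOI 1, treated 1 h later with compound dilutions and read at 48 hpi on IncuCyte. GFP integrated intensity is normalised to mock-infected and untreated infected wells (% change; -100 = full inhibition).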

[2] = tested on: HSV-1 K26-GFP infected primary human skin cells; experiment: as above
Procedure: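 2D primary donor-derived keratinocytes (read at 20 hpi) and donor-matched dermal fibroblasts (read at 48 hpi) infected with GFP-HSV-1 K26 at MOI 1 and treated 1 h later with compound dilutions. IncuCyte GFP integrated intensity is normalised by subtracting mock-infected wells and dividing by untreated infected wells, shown as % change (-100 = full inhibition).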

Nc1nc2c(ncn2COCCO)c(=O)[nH]1 [Acyclovir]
% change of HSV-1 GFP signal [%], [1]
Settings | 0.01 µM | 0.03 µM | 0.091 µM | 0.274 µM | 0.823 µM | 2.469 µM | 7.407 µM | 22.222 µM | 66.667 µM | 200 µM
donor: 3 | 11.2 ± 6.3 | -4.39 ± 2.3 | -24.2 ± 8.5 | -53.8 ± 11 | -81.8 ± 4.9 | -96 ± 0.22 | -98.87 ± 0.13 | -99.69 ± 0.19 | -99.875 ± 0.098 | -99.88 ± 0.11
donor: 4 | -5.12 ± 16 | -10.6 ± 10 | -29.8 ± 15 | -54.4 ± 18 | -78.2 ± 15 | -94 ± 3.8 | -98.8 ± 1 | -99.862 ± 0.042 | -99.93 ± 0.067 | -99.998 ± 0.025

% change of HSV-1 GFP signal [%], [2]
Settings | 0.01 µM | 0.03 µM | 0.091 µM | 0.274 µM | 0.823 µM | 2.469 µM | 7.407 µM | 22.222 µM | 66.667 µM | 200 µM
cell type: primary dermal fibroblasts, donor: 5, time (h post infection): 48 | 8.25 ± 7.3 | 5.48 ± 7.8 | -8.89 ± 2.1 | -35.4 ± 1 | -64.4 ± 10 | -91.6 ± 3 | -98.36 ± 0.36 | -99.642 ± 0.057 | -99.73 ± 0.32 | -99.952 ± 0.046
cell type: primary keratinocytes, donor: 3, time (h post infection): 20 | 4.06 ± 5.7 | 2.08 ± 2.7 | 5.2 ± 9.3 | 11.3 ± 12 | 10.1 ± 10 | 10.8 ± 15 | 5.3 ± 7.6 | -13.4 ± 9.2 | -42.3 ± 4.5 | -69.1 ± 3.9
cell type: primary keratinocytes, donor: 4, time (h post infection): 20 | 3.4 ± 2.5 | -0.143 ± 12 | 2.05 ± 15 | 3.28 ± 9.3 | -0.371 ± 6.8 | -2.35 ± 5.6 | -4.48 ± 10 | -27.5 ± 10 | -53.6 ± 9.3 | -80.5 ± 5
cell type: primary keratinocytes, donor: 5, time (h post infection): 20 | 3.43 ± 11 | 1.77 ± 12 | 4.64 ± 17 | 3.64 ± 6.5 | 4.14 ± 18 | 5.76 ± 13 | -4.49 ± 16 | -17.7 ± 9.9 | -45.6 ± 4.1 | -75.1 ± 1.7
